Each compound was assayed against T1, human MRGPRX2 (Homo sapiens, UniProt Q96LB1) (assay: MRGPRX2 IP-1 Gq HTRF assay in HEK293 cells stably expressing human MRGPRX2, Cortistatin-14 at EC75). Details: 2 hours at 37° C., cellular IP-1.
T1 construct: expressed in transfected cells; host or cells: HEK293
T1 sequence (Q96LB1 1-330): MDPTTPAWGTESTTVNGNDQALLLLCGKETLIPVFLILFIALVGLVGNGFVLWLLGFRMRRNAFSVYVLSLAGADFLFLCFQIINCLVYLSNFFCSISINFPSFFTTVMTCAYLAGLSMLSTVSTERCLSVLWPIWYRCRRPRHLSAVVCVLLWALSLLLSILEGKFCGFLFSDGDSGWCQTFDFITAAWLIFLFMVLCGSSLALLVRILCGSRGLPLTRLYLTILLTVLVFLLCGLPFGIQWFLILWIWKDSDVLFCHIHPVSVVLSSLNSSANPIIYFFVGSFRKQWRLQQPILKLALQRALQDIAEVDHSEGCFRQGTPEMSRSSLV
Format: cell-based
Description: HEK293 cells stably expressing human MRGPRX2 were grown in Dulbecco's Modified Eagle Medium (DMEM) supplemented with 10% fetal bovine serum (FBS), 1% Glutamax, and 1 μg/mL of puromycin. Cells were maintained in a 37° C., 5% CO2 humidified incubator.
Cells were plated in a 384-well assay plate at a density of 20,000 cells per well overnight. Compounds were solubilized at 10 mM in DMSO and added as a 10-point curve using an ECHO acoustic liquid handler. On the day of the assay, Cortistatin-14 was diluted in assay buffer (provided by IP-One-Gq-HTRF kit purchased from Cisbio, 62IPAPEJ) and added to the assay plate at a final concentration corresponding to the predetermined EC75. Plates were incubated at 37° C. for 2 hours prior to addition of HTRF detection reagents per the manufacturer's instructions. The plates were read on a Perkin Elmer Envision plate reader. The HTRF ratio and cellular IP-1 levels were calculated. XLfit was used to calculate an EC50 value for each compound using a 4-parameter logistic curve fitting model. EC50 ranges are reported as follows: A<100 nM; B 0.1-1 μM; C>1 μM.

SMILES | EC50 [nM]
CC(C)(C)C(=O)N1C[C@@H](NC(=O)c2cccc(NS(C)(=O)=O)c2)C[C@@H](Nc2cc(C(F)(F)F)nc3ccc(Cl)cc23)C1 (racemic) [Example 15] | 100 to 1000
CC(C)(C)OC(=O)N1C[C@@H](NC(=O)c2cccc(NS(C)(=O)=O)c2)C[C@@H](Nc2cc(C(F)(F)F)nc3ccc(Cl)cc23)C1 [Example 6] | 100 to 1000
CS(=O)(=O)Nc1cccc(C(=O)N[C@@H]2CNC[C@H](Nc3cc(C(F)(F)F)nc4ccc(Cl)cc34)C2)c1 [Example 7] | > 1000
CNCC(=O)N1C[C@@H](NC(=O)c2cccc(NS(C)(=O)=O)c2)C[C@@H](Nc2cc(C(F)(F)F)nc3ccc(Cl)cc23)C1 [Example 12] | 100 to 1000
CN(C)CC(=O)N1C[C@@H](NC(=O)c2cccc(NS(C)(=O)=O)c2)C[C@@H](Nc2cc(C(F)(F)F)nc3ccc(Cl)cc23)C1 [Example 13] | 100 to 1000
COCC(=O)N1C[C@@H](NC(=O)c2cccc(NS(C)(=O)=O)c2)C[C@@H](Nc2cc(C(F)(F)F)nc3ccc(Cl)cc23)C1 [Example 14] | < 100
CS(=O)(=O)Nc1cccc(C(=O)N[C@H]2CC(Nc3cc(C(F)(F)F)nc4ccc(Cl)cc34)CN(C(=O)C3CC3)C2)c1 (stereo partly shown) [Example 16] | 100 to 1000
CS(=O)(=O)Nc1cccc(C(=O)N[C@H]2CC(Nc3cc(C(F)(F)F)nc4ccc(Cl)cc34)CN(C(=O)C3CCC3)C2)c1 (stereo partly shown) [Example 17] | 100 to 1000
CS(=O)(=O)Nc1cccc(C(=O)N[C@H]2CC(N(C(=O)C3CC3)c3cc(C(F)(F)F)nc4ccc(Cl)cc34)CN(C(=O)C3CC3)C2)c1 (stereo partly shown) [Example 18] | 100 to 1000
CS(=O)(=O)Nc1cccc(C(=O)N[C@H]2CC(Nc3cc(C(F)(F)F)nc4ccc(Cl)cc34)CN(C(=O)c3cccnc3)C2)c1 (stereo partly shown) [Example 19] | 100 to 1000
CS(=O)(=O)Nc1cccc(C(=O)N[C@H]2CC(Nc3cc(C(F)(F)F)nc4ccc(Cl)cc34)CN(C(=O)Nc3ccccc3)C2)c1 (stereo partly shown) [Example 20] | 100 to 1000
CC(=O)N1CC(Nc2cc(C(F)(F)F)nc3ccc(F)cc23)C[C@H](NC(=O)c2cccc(NS(C)(=O)=O)c2)C1 (stereo partly shown) [Example 21] | < 100
CC(=O)N1CC(Nc2cc(C(F)(F)F)nc3ccccc23)C[C@H](NC(=O)c2cccc(NS(C)(=O)=O)c2)C1 (stereo partly shown) [Example 22] | 100 to 1000
CC(=O)N1C[C@@H](NC(=O)c2ccc(F)cc2)C[C@@H](Nc2cc(C(F)(F)F)nc3ccc(Cl)cc23)C1 [Example 23] | < 100
CC(=O)N1C[C@@H](NC(=O)c2ccc(F)c(F)c2)C[C@@H](Nc2cc(C(F)(F)F)nc3ccc(Cl)cc23)C1 [Example 26] | 100 to 1000
CC(=O)N1C[C@@H](NC(=O)c2ccc(F)cc2F)C[C@@H](Nc2cc(C(F)(F)F)nc3ccc(Cl)cc23)C1 [Example 27] | 100 to 1000
CC(=O)N1C[C@@H](NC(=O)c2cccc(S(C)(=O)=O)c2)C[C@@H](Nc2cc(C(F)(F)F)nc3ccc(Cl)cc23)C1 [Example 28] | < 100
CCn1cc(C(=O)N[C@H]2C[C@@H](Nc3cc(C(F)(F)F)nc4ccc(Cl)cc34)CN(C(C)=O)C2)cn1 [Example 31] | < 100
CC(=O)N1C[C@@H](NC(=O)c2cn(CC(F)(F)F)nn2)C[C@@H](Nc2cc(C(F)(F)F)nc3ccc(Cl)cc23)C1 [Example 33] | 100 to 1000
CC(=O)N1C[C@@H](NC(=O)c2cnn(C3CCNCC3)c2C)C[C@@H](Nc2cc(C(F)(F)F)nc3ccc(Cl)cc23)C1 [Example 34] | > 1000
CC(=O)N1C[C@@H](NC(=O)c2ccccc2F)C[C@@H](Nc2cc(C(F)(F)F)nc3ccc(Cl)cc23)C1 [Example 35] | 100 to 1000
CC(=O)N1C[C@@H](NC(=O)c2cccc(F)c2)C[C@@H](Nc2cc(C(F)(F)F)nc3ccc(Cl)cc23)C1 [Example 36] | < 100
CC(=O)N1C[C@@H](NC(=O)c2cc(F)cc(F)c2)C[C@@H](Nc2cc(C(F)(F)F)nc3ccc(Cl)cc23)C1 [Example 37] | 100 to 1000
CC(=O)N1C[C@@H](NC(=O)c2cnn(C(C)C)c2)C[C@@H](Nc2cc(C(F)(F)F)nc3ccc(Cl)cc23)C1 [Example 38] | 100 to 1000
CC(=O)N1C[C@@H](NC(=O)c2cnn(C)c2C)C[C@@H](Nc2cc(C(F)(F)F)nc3ccc(Cl)cc23)C1 [Example 39] | 100 to 1000
CC(=O)N1C[C@@H](NC(=O)c2cnn(C(F)F)c2)C[C@@H](Nc2cc(C(F)(F)F)nc3ccc(Cl)cc23)C1 [Example 40] | < 100

Each compound was assayed against T2, MRGPRX2 LAD2 (Homo sapiens, UniProt Q96LB1) (assay: LAD2 β-hexosaminidase release assay (degranulation), Cortistatin-14 at EC75). Details: LAD2 cells; 1 hour compound incubation, Cortistatin-14 at EC75 for 30 minutes; percent degranulation (β-hexosaminidase).
T2 construct: host or cells: LAD2 human mast cells
T2 sequence (Q96LB1 1-330): T1 sequence (Q96LB1 1-330)
Format: cell-based
Description: LAD2 cells obtained from the NIH were cultured in StemPro34 (Gibco) serum-free media supplemented with GlutaMax, penicillin and streptomycin, and 100 ng/mL SCF (Invitrogen). Cells were maintained in a 37° C., 5% CO2 humidified incubator at a concentration of 2-5E5 cells/mL, with hemidepletion once a week.
One day prior to the assay, cells were starved of SCF at a concentration of 2.3E5 cells/mL. On the day of the assay cells were washed twice in Tyrode's Buffer containing 0.04% BSA (assay buffer) and plated in a 96 well-v-bottom assay plate at 20,000 cells per well in 80 μL of assay buffer. Compounds were solubilized at 10 mM DMSO and added as a 10-fold overconcentrated 8-point curve in assay buffer in a volume of 10 μL using the JANUS liquid handler. Assay plates were incubated for 1 hour at 37° C. Cortistatin-14 was diluted in assay buffer to […] its predetermined EC75 and added to the assay plates in a volume of 10 μL. Assay plates were incubated at 37° C. for 30 minutes. After incubation, cells were pelleted and 50 μL of supernatant from each well was transferred to a 96 well flat bottom plate containing 100 μL of substrate solution (3.5 mg/mL p-Nitrophenyl-N-acetyl-β-D-glucosaminide (Sigma Aldrich) in 40 mM Citrate Buffer (Thermo Fisher)). The remaining cell pellets were lysed with 150 μL of 0.1% Triton-X-100 and mixed thoroughly. 50 μL of lysate was transferred to a 96-well flat bottom plate containing 100 μL of substrate solution. Plates with supernatants and lysates were incubated at 37° C. for 90 minutes prior to addition of 50 μL of 400 mM Glycine buffer (pH 10.7). The plates were read on a Perkin Elmer Envision plate reader at an Abs of 405 nanometers. Percent degranulation was calculated and Xlfit was used to calculate an EC50 value for each compound using a 4-parameter logistic curve fitting model. EC50 ranges are reported as follows: A<100 nM; B 0.1-1 μM; C>1 μM.

SMILES | EC50 [nM]
O=C(N[C@H]1C[C@@H](Nc2cc(C(F)(F)F)nc3ccc(Cl)cc23)CN(C(=O)C(F)F)C1)c1cn(CC2(O)CCC2)nc1Cl [Example 119] | < 100
O=C(N[C@H]1C[C@@H](Nc2cc(C(F)(F)F)nc3ccc(Cl)cc23)CN(C(=O)C(F)F)C1)c1cn(C[C@H](O)C(F)F)nc1Cl [Example 120] | < 100
O=C(N[C@H]1C[C@@H](Nc2cc(C(F)(F)F)nc3ccc(Cl)cc23)CN(C(=O)C(F)F)C1)c1cn(C2CCC(F)(F)CC2)nc1Cl [Example 121] | < 100
CC(C)(O)C(O)Cn1cc(C(=O)N[C@H]2C[C@@H](Nc3cc(C(F)(F)F)nc4ccc(Cl)cc34)CN(C(=O)C(F)F)C2)c(Cl)n1 (stereo partly shown) [Example 122] | < 100
C[C@@H](O)Cn1cc(C(=O)N[C@H]2C[C@@H](Nc3cc(C(F)(F)F)nc4ccc(Cl)cc34)CN(C(=O)C(F)F)C2)c(Cl)n1 [Example 123] | < 100
C[C@H](O)Cn1cc(C(=O)N[C@H]2C[C@@H](Nc3cc(C(F)(F)F)nc4ccc(Cl)cc34)CN(C(=O)C(F)F)C2)c(Cl)n1 [Example 124] | < 100
O=C(C(F)F)N1C[C@@H](Nc2nccc3ccccc23)C[C@@H](Nc2cc(C(F)(F)F)nc3ccc(Cl)cc23)C1 [Example 125] | < 100
C[C@@H]1CCCN1C(=O)N[C@H]1C[C@@H](Nc2cc(C(F)(F)F)nc3ccc(Cl)cc23)CN(C(=O)C(F)F)C1 [Example 126] | < 100
O=C(N[C@H]1C[C@@H](Nc2cc(C(F)(F)F)nc3ccc(Cl)cc23)CN(C(=O)C(F)F)C1)N1CC[C@H](O)C1 [Example 127] | < 100
O=C(N[C@H]1C[C@@H](Nc2cc(C(F)(F)F)nc3ccc(Cl)cc23)CN(C(=O)C(F)F)C1)N1CCCC2(CC2)C1 [Example 128] | < 100
CC(=O)N1C[C@@H](NC(=O)N2CCc3cn(C)nc3C2)C[C@@H](Nc2cc(C(F)(F)F)nc3ccc(Cl)cc23)C1 [Example 129] | < 100
CC(=O)N1C[C@@H](NC(=O)c2cn(CC(F)(F)F)nc2C2CC2)C[C@@H](Nc2c(F)c(C(F)(F)F)nc3cc(F)c(Cl)cc23)C1 [Example 130] | < 100
CC(=O)N1C[C@@H](NC(=O)c2cn(CC(F)(F)F)nc2C2CC2)C[C@@H](Nc2cc(C(F)(F)F)nc3ccc(OC(F)(F)F)cc23)C1 [Example 132] | < 100
CC(=O)N1C[C@@H](NC(=O)c2cn(CC(F)(F)F)nc2C2CC2)C[C@@H](Nc2cc(C(F)(F)F)nc3cc(F)c(Cl)cc23)C1 [Example 133] | < 100
CC(=O)N1C[C@@H](NC(=O)c2cn(CC(F)(F)F)nc2C2CC2)C[C@@H](Nc2c(C)c(C(F)(F)F)nc3ccc(Cl)cc23)C1 [Example 135] | < 100
CC(=O)N1C[C@@H](NC(=O)c2cn(CC(F)(F)F)nc2C2CC2)C[C@@H](Nc2c(F)c(C(F)(F)F)nc3ccc(Cl)cc23)C1 [Example 136] | < 100
CC(=O)N1C[C@@H](NC(=O)c2cn(CC(F)(F)F)nc2C2CC2)C[C@@H](Nc2cc(C(F)(F)F)nc3c(F)cc(Cl)cc23)C1 [Example 139] | < 100

From patent US20250313569A1, “Pharmaceutical Compounds And Compositions As Modulators Of MAS-Related G-Protein Receptor X2” (Enanta Pharmaceuticals, Inc., priority 2024, published 2025)
